Measured values taken from patent US20100298141A1, “SUBSTITUTED PYRIDINE N-OXIDE HERBICIDES” (E. I. DU PONT DE NEMOURS AND COMPANY, priority 2007, published 2010).

Columns and labels:
[1] = test system: blackgrass; assay: Test C pre-/postemergence test; assay type: in vivo, Alopecurus myosuroides; settings: for Plant response rating (0 to 100), Blackgrass: 250 g ai/ha
Outline: (§1)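 Seeds were planted and treated preemergence with test chemical in a non-phytotoxic solvent mixture containing surfactant. Postemergence applications of the same formulation went onto plants 2 to 18 cm tall (1- to 4-leaf stage). A dash marks no test result.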

[2] = test system: Surinam grass; assay: Test F preemergence test; assay type: in vivo, Brachiaria decumbens; settings: scale 0 to 100
Outline: (§2)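 Greenhouse screen: test chemical in surfactant-containing non-phytotoxic solvent applied preemergence to sown seeds or postemergence to sugarcane plants; after 14 to 21 days each species scored visually versus controls.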

[3] = test system: quackgrass; assay: Test F preemergence test; assay type: in vivo, Elytrigia repens; settings: scale 0 to 100
Outline: as §2

[4] = test system: prickly sida; assay: Test F preemergence test; assay type: in vivo, Sida spinosa; settings: scale 0 to 100
Outline: as §2

[5] = test system: common ragweed; assay: Test C pre-/postemergence test; assay type: in vivo, Ambrosia elation
Outline: as §1

[6] = test system: corn; assay: Test A pre-/postemergence greenhouse test; assay type: in vivo, Zea mays; settings: for Corn plant response rating: 0 to 100 scale; for Plant response rating, Corn: 0 to 100 scale where 0 is no effect and 100 is complete control
Outline: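 Greenhouse herbicide screen, pre- and postemergence in parallel. Soil: loam plus sand. Formulation: non-phytotoxic solvent mix with surfactant. Postemergence stage: one to two leaves, 2–10 cm height. Evaluation: visual injury, compared with untreated controls, about 10 days after treatment.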

[7] = test system: Virginia dayflower; assay: Test F preemergence test; assay type: in vivo, Commelina virginica; settings: scale 0 to 100
Outline: as §2

[8] = test system: mustard; assay: Test F preemergence test; assay type: in vivo, Brassica nigra; settings: scale 0 to 100
Outline: as §2

[9] = test system: broadleaf signalgrass; assay: Test F preemergence test; assay type: in vivo, Brachiaria platyphylla; settings: scale 0 to 100
Outline: as §2

[10] = test system: green foxtail; assay: Test C pre-/postemergence test; assay type: in vivo, Setaria viridis; settings: for Plant response rating (0 to 100), Foxtail, Green: 250 g ai/ha
Outline: as §1

[11] = test system: kochia; assay: Test F preemergence test; assay type: in vivo, Kochia scoparia; settings: scale 0 to 100
Outline: as §2

[12] = test system: bermudagrass; assay: Test F preemergence test; assay type: in vivo, Cynodon dactylon; settings: scale 0 to 100
Outline: as §2

[13] = test system: dallisgrass; assay: Test F preemergence test; assay type: in vivo, Paspalum dilatatum; settings: scale 0 to 100
Outline: as §2

[14] = test system: common mallow; assay: Test F preemergence test; assay type: in vivo, Malva sylvestris; settings: scale 0 to 100
Outline: as §2

[15] = 62 g ai/ha, Preemergence, scale 0 to 100
[16] = Preemergence, 31 g ai/ha, scale 0 to 100 (0 no effect, 100 complete control)
[17] = preemergence, 125 g ai/ha, scale 0 (no effect) to 100 (complete control)
[18] = Postemergence, 125 g ai/ha, 0 is no effect, 100 is complete control
[19] = Postemergence, 500 g ai/ha, 0 is no effect, 100 is complete control
[20] = Preemergence, 125 g ai/ha, 0 no effect, 100 complete control
[21] = 31 g ai/ha, Preemergence, scale 0 to 100
[22] = 62 g ai/ha, preemergence, scale 0 (no effect) to 100 (complete control)

CC(c1c(C(F)(F)F)nn(C)c1OCC(F)(F)F)S(=O)(=O)c1cccc[n+]1[O-] (racemic) [Compound 33]
75: Quackgrass plant response rating ([3]; 62 g ai/ha, Preemergence) | Plant response rating, Signalgrass ([9]; Preemergence, 62 g ai/ha) | Foxtail, Green plant response rating [10, 15] | Plant response rating, Foxtail, Green [10, 16]
98: Dayflower plant response rating ([7]; 62 g ai/ha, Preemergence)
25: Plant response rating, Quackgrass ([3]; Preemergence, 31 g ai/ha) | Plant response rating, Prickly Sida ([4]; 16 g ai/ha, preemergence)
90: Prickly Sida plant response rating ([4]; 62 g ai/ha, Preemergence) | Plant response rating, Prickly Sida ([4]; Preemergence, 31 g ai/ha) | Plant response rating, Dayflower ([7]; Preemergence, 31 g ai/ha)
70: Corn plant response rating [6, 19] | Corn plant response rating [6, 20] | Kochia plant response rating ([11]; 62 g ai/ha, Preemergence) | Bermudagrass plant response rating ([12]; 62 g ai/ha, Preemergence)
40: Plant response rating, Bermudagrass ([12]; 16 g ai/ha, preemergence)
35: Plant response rating, Signalgrass ([9]; Preemergence, 31 g ai/ha)
80: Plant response rating, Blackgrass [1, 16] | Plant response rating, Corn ([6]; Preemergence, 500 g ai/ha) | Signalgrass plant response rating ([9]; 125 g ai/ha, preemergence) | Dallisgrass plant response rating ([13]; 62 g ai/ha, Preemergence)
10: Ragweed plant response rating [5, 15] | Plant response rating, Black Mustard ([8]; 16 g ai/ha, preemergence)
0: Plant response rating, Quackgrass ([3]; 16 g ai/ha, preemergence) | Plant response rating, Kochia ([11]; 16 g ai/ha, preemergence)
65: Plant response rating, Black Mustard ([8]; Preemergence, 31 g ai/ha) | Plant response rating, Dallisgrass ([13]; Preemergence, 31 g ai/ha)
15: Plant response rating, Signalgrass ([9]; 16 g ai/ha, preemergence)
20: Plant response rating, Surinam Grass ([2]; 16 g ai/ha, preemergence)
85: Blackgrass plant response rating [1, 15]
60: Plant response rating, Dayflower ([7]; 16 g ai/ha, preemergence) | Plant response rating, Bermudagrass ([12]; Preemergence, 31 g ai/ha)
95: Quackgrass plant response rating ([3]; 125 g ai/ha, preemergence)
50: Corn plant response rating [6, 18] | Plant response rating, Kochia ([11]; Preemergence, 31 g ai/ha)
100: Plant response rating (0 to 100), Blackgrass ([1]; Preemergence) | Blackgrass plant response rating [1, 17] | Surinam Grass plant response rating ([2]; 125 g ai/ha, preemergence) | Plant response rating, Surinam Grass ([2]; Preemergence, 31 g ai/ha) | Prickly Sida plant response rating ([4]; 125 g ai/ha, preemergence) | Dayflower plant response rating ([7]; 125 g ai/ha, preemergence) | Black Mustard plant response rating ([8]; 62 g ai/ha, Preemergence) | Black Mustard plant response rating ([8]; 125 g ai/ha, preemergence) | Plant response rating (0 to 100), Foxtail, Green ([10]; Preemergence) | Kochia plant response rating ([11]; 125 g ai/ha, preemergence) | Bermudagrass plant response rating ([12]; 125 g ai/ha, preemergence) | Dallisgrass plant response rating ([13]; 125 g ai/ha, preemergence) | Plant response rating, Mallow ([14]; 16 g ai/ha, preemergence) | Mallow plant response rating ([14]; 62 g ai/ha, Preemergence) | Mallow plant response rating ([14]; 125 g ai/ha, preemergence) | Plant response rating, Mallow ([14]; Preemergence, 31 g ai/ha)
30: Plant response rating, Dallisgrass ([13]; 16 g ai/ha, preemergence)

Cn1nc(C(F)(F)F)c(C[S+]([O-])c2cccc[n+]2[O-])c1Cl (stereo not drawn) [Compound 8]
50: Ragweed plant response rating [5, 21] | Corn plant response rating [6, 18]
65: Plant response rating, Signalgrass ([9]; Preemergence, 31 g ai/ha)
70: Plant response rating, Surinam Grass ([2]; Preemergence, 31 g ai/ha) | Quackgrass plant response rating ([3]; 125 g ai/ha, preemergence) | Prickly Sida plant response rating ([4]; 62 g ai/ha, Preemergence) | Plant response rating, Corn ([6]; Preemergence, 500 g ai/ha) | Plant response rating, Black Mustard ([8]; Preemergence, 31 g ai/ha)
80: Black Mustard plant response rating ([8]; 62 g ai/ha, Preemergence) | Dallisgrass plant response rating ([13]; 62 g ai/ha, Preemergence) | Mallow plant response rating ([14]; 125 g ai/ha, preemergence)
20: Plant response rating, Prickly Sida ([4]; Preemergence, 16 g ai/ha) | Plant response rating, Prickly Sida ([4]; Preemergence, 31 g ai/ha) | Corn plant response rating [6, 20] | Plant response rating, Dallisgrass ([13]; Preemergence, 31 g ai/ha)
98: Dallisgrass plant response rating ([13]; 125 g ai/ha, preemergence)
40: Quackgrass plant response rating ([3]; 62 g ai/ha, Preemergence)
0: Blackgrass plant response rating [1, 21] | Blackgrass plant response rating [1, 22] | Plant response rating, Quackgrass ([3]; Preemergence, 16 g ai/ha) | Plant response rating, Quackgrass ([3]; Preemergence, 31 g ai/ha) | Dayflower plant response rating ([7]; 62 g ai/ha, Preemergence) | Plant response rating, Dayflower ([7]; Preemergence, 16 g ai/ha) | Plant response rating, Dayflower ([7]; Preemergence, 31 g ai/ha) | Plant response rating, Black Mustard ([8]; Preemergence, 16 g ai/ha) | Kochia plant response rating ([11]; 62 g ai/ha, Preemergence) | Plant response rating, Kochia ([11]; Preemergence, 16 g ai/ha) | Plant response rating, Kochia ([11]; Preemergence, 31 g ai/ha) | Plant response rating, Bermudagrass ([12]; Preemergence, 16 g ai/ha) | Plant response rating, Dallisgrass ([13]; Preemergence, 16 g ai/ha)
95: Black Mustard plant response rating ([8]; 125 g ai/ha, preemergence)
100: Plant response rating (0 to 100), Blackgrass ([1]; Preemergence) | Blackgrass plant response rating [1, 17] | Surinam Grass plant response rating ([2]; 125 g ai/ha, preemergence) | Foxtail, Green plant response rating [10, 21] | Foxtail, Green plant response rating [10, 22] | Plant response rating (0 to 100), Foxtail, Green ([10]; Preemergence) | Foxtail, Green plant response rating [10, 17] | Kochia plant response rating ([11]; 125 g ai/ha, preemergence)
30: Plant response rating, Mallow ([14]; Preemergence, 16 g ai/ha) | Plant response rating, Mallow ([14]; Preemergence, 31 g ai/ha)
90: Surinam Grass plant response rating ([2]; 62 g ai/ha, Preemergence) | Prickly Sida plant response rating ([4]; 125 g ai/ha, preemergence) | Plant response rating (0 to 100), Ragweed ([5]; Preemergence, 250 g ai/ha) | Bermudagrass plant response rating ([12]; 125 g ai/ha, preemergence)
85: Signalgrass plant response rating ([9]; 125 g ai/ha, preemergence)
15: Plant response rating, Bermudagrass ([12]; Preemergence, 31 g ai/ha)
60: Ragweed plant response rating [5, 22] | Ragweed plant response rating [5, 17] | Corn plant response rating [6, 19] | Mallow plant response rating ([14]; 62 g ai/ha, Preemergence)
75: Dayflower plant response rating ([7]; 125 g ai/ha, preemergence) | Signalgrass plant response rating ([9]; 62 g ai/ha, Preemergence) | Bermudagrass plant response rating ([12]; 62 g ai/ha, Preemergence)
